Experimental data from paper PMC10726920 (Cancer Medicine, 2023).

Test system: patients with acute lymphoblastic leukemia
Experiment: Adverse events (CTCAE version 4.0), Phase II study NCI-9775 of sapanisertib monotherapy
Format: in vivo
Details: treatment-related; 15 evaluable
Experimental: Responders could continue on the same dose or proceed to allogeneic hematopoietic cell transplant if available. Non‐responders (but tolerating drug) could increase their dose to 4 mg orally for 21 days every 28 days (dose level + 1) starting in Cycle 3 and 4 mg orally continuously (dose level + 2) starting in Cycle 5 (if they tolerated dose level + 1). Dose reduction was recommended for toxicity (dose level − 1: 2 mg daily for 21 days every 28 days; dose level − 2: 2 mg daily for 5 days/week for 3 weeks every 4 weeks). […] Intrathecal chemotherapy was allowed per institutional standard policies. In‐home blood glucose monitoring was performed daily to monitor blood sugar (a glucometer was given to every patient on the study). Discontinuation of therapy was recommended for disease progression, severe toxicity, lack of response, proceeding to hematopoietic cell transplant, or prolonged delay of the subsequent cycle (>1 month delay for therapy‐related toxicity or >2 months delay for unrelated toxicity).
The primary endpoint was the proportion of successes, which was estimated by the number of successes divided by the total number of evaluable patients. Secondary endpoints of duration of response (CR or CRi) and overall survival (OS) were evaluated using Kaplan–Meier techniques; the frequency of proceeding to allogeneic stem cell transplant after achieving response and adverse events (AEs), as evaluated using reported the NCI Common Terminology Criteria for Adverse Events (CTCAE) version 4.0, were presented using descriptive statistics.

## CC(C)n1nc(-c2ccc3oc(N)nc3c2)c2c(N)ncnc21 [sapanisertib]
  Aspartate aminotransferase increased grade 2: 0 (0) N (%)
  Aspartate aminotransferase increased grade 3: 0 (0) N (%)
  Aspartate aminotransferase increased grade 4: 0 (0) N (%)
  Aspartate aminotransferase increased grade 5: 0 (0) N (%)
  Bloating grade 1: 1 (7) N (%)
  Bloating grade 2: 0 (0) N (%)
  Bloating grade 3: 0 (0) N (%)
  Bloating grade 4: 0 (0) N (%)
  Bloating grade 5: 0 (0) N (%)
  Blood bilirubin increased grade 1: 1 (7) N (%)
  Blood bilirubin increased grade 2: 0 (0) N (%)
  Blood bilirubin increased grade 3: 1 (7) N (%)
  Blood bilirubin increased grade 4: 0 (0) N (%)
  Blood bilirubin increased grade 5: 0 (0) N (%)
  Confusion grade 1: 0 (0) N (%)
  Confusion grade 2: 0 (0) N (%)
  Confusion grade 3: 1 (7) N (%)
  Confusion grade 4: 0 (0) N (%)
  Confusion grade 5: 0 (0) N (%)
  Constipation grade 1: 1 (7) N (%)
  Constipation grade 2: 0 (0) N (%)
  Constipation grade 3: 0 (0) N (%)
  Constipation grade 4: 0 (0) N (%)
  Constipation grade 5: 0 (0) N (%)
  Cough grade 1: 1 (7) N (%)
  Cough grade 2: 0 (0) N (%)
  Cough grade 3: 0 (0) N (%)
  Cough grade 4: 0 (0) N (%)
  Cough grade 5: 0 (0) N (%)
  Delirium grade 1: 0 (0) N (%)
  Delirium grade 2: 0 (0) N (%)
  Delirium grade 3: 1 (7) N (%)
  Delirium grade 4: 0 (0) N (%)
  Delirium grade 5: 0 (0) N (%)
  Diarrhea grade 1: 1 (7) N (%)
  Diarrhea grade 2: 0 (0) N (%)
  Diarrhea grade 3: 0 (0) N (%)
  Diarrhea grade 4: 0 (0) N (%)
  Diarrhea grade 5: 0 (0) N (%)
  Dysgeusia grade 1: 1 (7) N (%)
  Dysgeusia grade 2: 0 (0) N (%)
  Dysgeusia grade 3: 0 (0) N (%)
  Dysgeusia grade 4: 0 (0) N (%)
  Dysgeusia grade 5: 0 (0) N (%)
  Edema limbs grade 1: 1 (7) N (%)
  Edema limbs grade 2: 0 (0) N (%)
  Edema limbs grade 3: 0 (0) N (%)
  Edema limbs grade 4: 0 (0) N (%)
  Edema limbs grade 5: 0 (0) N (%)
  Fall grade 1: 0 (0) N (%)
  Fall grade 2: 1 (7) N (%)
  Fall grade 3: 0 (0) N (%)
  Fall grade 4: 0 (0) N (%)
  Fall grade 5: 0 (0) N (%)
  Fatigue grade 1: 1 (7) N (%)
  Fatigue grade 2: 0 (0) N (%)
  Fatigue grade 3: 1 (7) N (%)
  Fatigue grade 4: 0 (0) N (%)
  Fatigue grade 5: 0 (0) N (%)
  Febrile neutropenia grade 1: 0 (0) N (%)
  Febrile neutropenia grade 2: 0 (0) N (%)
  Febrile neutropenia grade 3: 1 (7) N (%)
  Febrile neutropenia grade 4: 0 (0) N (%)
  Febrile neutropenia grade 5: 0 (0) N (%)
  Fibrinogen decreased grade 1: 0 (0) N (%)
  Fibrinogen decreased grade 2: 0 (0) N (%)
  Fibrinogen decreased grade 3: 1 (7) N (%)
  Fibrinogen decreased grade 4: 0 (0) N (%)
  Fibrinogen decreased grade 5: 0 (0) N (%)
  Hyperglycemia grade 1: 0 (0) N (%)
  Hyperglycemia grade 2: 0 (0) N (%)
  Hyperglycemia grade 3: 2 (13) N (%)
  Hyperglycemia grade 4: 0 (0) N (%)
  Hyperglycemia grade 5: 0 (0) N (%)
  Hypertriglyceridemia grade 1: 1 (7) N (%)
  Hypertriglyceridemia grade 2: 0 (0) N (%)
  Hypertriglyceridemia grade 3: 0 (0) N (%)
  Hypertriglyceridemia grade 4: 0 (0) N (%)
  Hypertriglyceridemia grade 5: 0 (0) N (%)
  Leukocytosis grade 1: 0 (0) N (%)
  Leukocytosis grade 2: 0 (0) N (%)
  Leukocytosis grade 3: 1 (7) N (%)
  Leukocytosis grade 4: 0 (0) N (%)
  Leukocytosis grade 5: 0 (0) N (%)
  Lymphocyte count decreased grade 1: 0 (0) N (%)
  Lymphocyte count decreased grade 2: 0 (0) N (%)
  Lymphocyte count decreased grade 3: 2 (13) N (%)
  Lymphocyte count decreased grade 4: 0 (0) N (%)
  Lymphocyte count decreased grade 5: 0 (0) N (%)
  Mucositis oral grade 1: 0 (0) N (%)
  Mucositis oral grade 2: 0 (0) N (%)
  Mucositis oral grade 3: 3 (20) N (%)
  Mucositis oral grade 4: 0 (0) N (%)
  Mucositis oral grade 5: 0 (0) N (%)
  Neoplasms grade 1: 0 (0) N (%)
  Neoplasms grade 2: 0 (0) N (%)
  Neoplasms grade 3: 1 (7) N (%)
  Neoplasms grade 4: 0 (0) N (%)
  Neoplasms grade 5: 0 (0) N (%)
  Neutrophil count decreased grade 1: 0 (0) N (%)
  Neutrophil count decreased grade 2: 0 (0) N (%)
  Neutrophil count decreased grade 3: 0 (0) N (%)
  Neutrophil count decreased grade 4: 1 (7) N (%)
  Neutrophil count decreased grade 5: 0 (0) N (%)
  Oral pain grade 1: 1 (7) N (%)
  Oral pain grade 2: 0 (0) N (%)
  Oral pain grade 3: 0 (0) N (%)
  Oral pain grade 4: 0 (0) N (%)
  Oral pain grade 5: 0 (0) N (%)
  Paresthesia grade 1: 1 (7) N (%)
  Paresthesia grade 2: 0 (0) N (%)
  Paresthesia grade 3: 0 (0) N (%)
  Paresthesia grade 4: 0 (0) N (%)
  Paresthesia grade 5: 0 (0) N (%)
  Pharyngolaryngeal pain grade 1: 0 (0) N (%)
  Pharyngolaryngeal pain grade 2: 1 (7) N (%)
  Pharyngolaryngeal pain grade 3: 0 (0) N (%)
  Pharyngolaryngeal pain grade 4: 0 (0) N (%)
  Pharyngolaryngeal pain grade 5: 0 (0) N (%)
  Platelet count decreased grade 1: 0 (0) N (%)
  Platelet count decreased grade 2: 0 (0) N (%)
  Platelet count decreased grade 3: 1 (7) N (%)
  Platelet count decreased grade 4: 3 (20) N (%)
  Platelet count decreased grade 5: 0 (0) N (%)
  Pneumonitis grade 1: 0 (0) N (%)
  Pneumonitis grade 2: 0 (0) N (%)
  Pneumonitis grade 3: 1 (7) N (%)
  Pneumonitis grade 4: 0 (0) N (%)
  Pneumonitis grade 5: 0 (0) N (%)
  Pruritus grade 1: 1 (7) N (%)
  Pruritus grade 2: 0 (0) N (%)
  Pruritus grade 3: 0 (0) N (%)
  Pruritus grade 4: 0 (0) N (%)
  Pruritus grade 5: 0 (0) N (%)
  Resp, thoracic, mediastinal grade 1: 0 (0) N (%)
  Resp, thoracic, mediastinal grade 2: 0 (0) N (%)
  Resp, thoracic, mediastinal grade 3: 0 (0) N (%)
  Resp, thoracic, mediastinal grade 4: 1 (7) N (%)
  Resp, thoracic, mediastinal grade 5: 0 (0) N (%)
  Vaginal inflammation grade 1: 0 (0) N (%)
  Vaginal inflammation grade 2: 1 (7) N (%)
  Vaginal inflammation grade 3: 0 (0) N (%)
  Vaginal inflammation grade 4: 0 (0) N (%)
  Vaginal inflammation grade 5: 0 (0) N (%)
  Vomiting grade 1: 1 (7) N (%)
  Vomiting grade 2: 0 (0) N (%)
  Vomiting grade 3: 0 (0) N (%)
  Vomiting grade 4: 0 (0) N (%)
  Vomiting grade 5: 0 (0) N (%)
  Wheezing grade 1: 0 (0) N (%)
  Wheezing grade 2: 1 (7) N (%)
  Wheezing grade 3: 0 (0) N (%)
  Wheezing grade 4: 0 (0) N (%)
  Wheezing grade 5: 0 (0) N (%)
  White blood cell decreased grade 1: 0 (0) N (%)
  White blood cell decreased grade 2: 0 (0) N (%)
  White blood cell decreased grade 3: 0 (0) N (%)
  White blood cell decreased grade 4: 2 (13) N (%)
  White blood cell decreased grade 5: 0 (0) N (%)
